Results as given in PMC4914113, “Another look at the mechanism involving trimeric dUTPases in Staphylococcus aureus pathogenicity island induction involves novel players in the party” (Nucleic Acids Research, 2016).

Experiments:
[1] = target: Dut80α^WT, wild-type dUTPase of phage 80α (Staphylococcus aureus phage 80α); test: crystal structure; Dut80α^WT with dUMP (5CCO) and Dut80α^G164S with dUPNPP-Mg (5CCT); space group P2_(1)3, one Dut molecule in the final model; trimers shown in Figure 3
Dut80α [2] = target: T1, Dut80α (Dubowvirus dv80alpha, UniProt A4ZF98); test: X-ray crystallography; format: binding; conditions: 2.33 Å; no nucleotide added to crystallisation; active site
T1 construct: His6-tagged from pET-28a, E. coli BL21(DE3); homotrimer; models cover residues 2-168 (dUMP) and 2-170 (G164S)

[3] = target: Dut80α^G164S (Staphylococcus aureus phage 80α); test: crystal structure; Dut80α^WT with dUMP (5CCO) and Dut80α^G164S with dUPNPP-Mg (5CCT); space group P2_(1)3, one Dut molecule in the final model; trimers shown in Figure 3
Dutϕ11 = target: T2, Dutϕ11 (Staphylococcus phage phi 11, UniProt Q8SDV3); test: biolayer interferometry, effect on Stl binding; conditions: 0.5 mM dUPNPP; SaPIbov1 Stl analyte; pH 7.5, 5 mM MgCl2; competes with Stl
T2 construct: His6-tagged from pET-28a, E. coli BL21(DE3); trimeric Dut

Dut80α [4] = target: T1, Dut80α; test: biolayer interferometry, effect on Stl binding; conditions: 0.5 mM dUPNPP; SaPIbov1 Stl analyte; pH 7.5, 5 mM MgCl2; competes with Stl

Dut80α^WT, wild-type dUTPase of phage 80α (enzyme)
stoichiometry N [1]: 3

O=c1ccn([C@H]2C[C@H](O)[C@@H](COP(=O)(O)O)O2)c(=O)[nH]1 [dUMP]
X-ray crystallography (Dut80α [2]): structure of the Dut80α^WT bound to the dUMP showed that motif V was ordered

Dut80α^G164S (enzyme)
stoichiometry N [3]: 3

O=c1ccn([C@H]2C[C@H](O)[C@@H](COP(=O)(O)NP(=O)(O)OP(=O)(O)O)O2)c(=O)[nH]1 [dUPNPP, 2-Deoxyuridine-5-[(α,β)-imido]triphosphate]
biolayer interferometry, effect on Stl binding (Dutϕ11): dUPNPP decreased the affinity of the Stl:Dut80α complex by about one order
biolayer interferometry, effect on Stl binding (Dut80α [4]): presence of the dUPNPP severely affects the formation of the Stl:Dut80α complex
